Test results reported in patent US4473554A, “Bestatin-related compounds as immunopotentiator” (Zaidan Hojin Biseibutsu Kagaku Kenkyu Kai, priority 1982, dated 1984).

Tests used:
[1] = system: D.T.H. response in mice immunized with SRBC as antigen; experiment: D.T.H. footpad test in mice immunized with SRBC, Examples 3-6 (dosages per mouse); assay type: in vivo; conditions: for Degree of swelling: control = 100; for Degree of swelling, Intraperitoneal injection / Degree of swelling, Oral administration: Table 5
Procedure: The effect of (2S,3R)-AHPA on cell-mediated immunity was tested in the same way in Example 2, namely according to the D.T.H. technique using mice immunized with sheep red blood cell as antigen. Thus, a suspension of 10^8 sheep red blood cells in 0.05 ml of physiological saline were subcutaneously injected at the time of immunization into the right hind footpad of each CDF1 -mouse under test (female, 8 weeks-aged, 5 mice in each group) to establish D.T.H. […] The degree of swelling was evaluated. By way of comparison, bestatin was tested in the same way as above. […] The effect of (2S,3R)-AHPA on the D.T.H. response was estimated in the same manner as in the above procedure (A) of Example 3 by orally administering 1 mcg/mouse, 0.1 mcg/mouse or 0.01 mcg/mouse of (2S,3R)-AHPA to each mouse under test. […] The effect of the mode of administering (2S,3R)-AHPA on the D.T.H. response was estimated in the same manner as in the procedure (A) of Example 3, except that the test compound (as aqueous solution) was injected intraperitoneally in stead of being given orally.

ICR-strain mice = experiment: acute toxicity, intraperitoneal, ICR-strain mice; assay type: in vivo, mouse; conditions: dosage of 100 mg/kg
Source text: In order to estimate the acute toxicity of the compound of the formula (VIII) or (IIId), some of the test compound was intraperitoneally given to ICR-strain mice (in groups each consisting of 6 mice, male, 5 weeks-aged, average body weight 20 g.), when all the tested mice tolerated intraperitoneal administration of (2S,3R)-APHA; (2S)-2-N-[(2'S,3'R)-3'-amino-2'-hydroxy-4'-phenyl-butanoyl]amino-4-methyl- pentanol; (2S)-2-N-[(2'S,3'R)-3'-amino-2'-hydroxy-4'-phenylbutanoyl-(S)-leucyl]amino-4-methyl-pentanol; (2S,3R)-3-amino-2-hydroxy-4-phenylbutanoyl-(S)-leucyl-(S)-leucine; (2S,3R)-3-amino-2-hydroxy-4-phenyl-butanoyl-(S)-leucyl-(S)-arginine; (2S,3R)-3-amino-2-hydroxy-4-phenylbutanoyl-(S)-leucyl-(S)-asparagine; (2R,3R)-3-amino-2-hydroxy-4-phenylbutanoyl-(S)-leucyl-(R)-asparagine; and (2S,3R)-3-amino-2-hydroxy-4-phenylbutanoyl-(S)-leucyl-(R)-arginine at a dosage of 100 mg/kg.

aminopeptidase B = molecular target: T1, aminopeptidase B (Rattus norvegicus, UniProt O09175); conditions: Journal of Medicinal Chemistry Vol. 20, No.4, pp. 510-515 (1977); cited from earlier work
T1 sequence (O09175 1-650): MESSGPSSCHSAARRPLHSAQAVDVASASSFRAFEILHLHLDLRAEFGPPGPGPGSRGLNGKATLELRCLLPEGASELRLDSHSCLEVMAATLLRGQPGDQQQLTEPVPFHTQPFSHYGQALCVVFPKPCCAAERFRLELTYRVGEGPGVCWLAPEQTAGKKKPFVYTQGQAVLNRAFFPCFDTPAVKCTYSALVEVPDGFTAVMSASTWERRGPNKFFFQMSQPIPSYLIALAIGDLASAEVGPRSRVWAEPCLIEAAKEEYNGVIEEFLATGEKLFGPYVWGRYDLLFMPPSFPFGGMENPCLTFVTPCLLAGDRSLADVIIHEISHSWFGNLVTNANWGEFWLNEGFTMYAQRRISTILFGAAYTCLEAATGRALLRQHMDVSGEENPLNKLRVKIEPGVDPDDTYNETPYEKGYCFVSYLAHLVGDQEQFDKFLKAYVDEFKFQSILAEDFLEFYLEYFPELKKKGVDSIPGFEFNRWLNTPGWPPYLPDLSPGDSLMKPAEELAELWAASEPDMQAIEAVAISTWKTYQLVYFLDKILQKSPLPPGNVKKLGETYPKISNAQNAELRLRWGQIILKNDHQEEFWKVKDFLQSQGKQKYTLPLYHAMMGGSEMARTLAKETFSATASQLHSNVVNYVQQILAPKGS

N[C@H](Cc1ccccc1)[C@H](O)C(=O)O [(2S,3R)-AHPA]
Increase in thickness of footpad (± S.D.) ([1]; Table 3, oral 0.01 mcg/mouse): 10.6 ± 1.17 × 0.1 mm
Degree of swelling ([1]; Table 3, oral 0.01 mcg/mouse): 134%
Increase in thickness of footpad (± S.D.) ([1]; Table 3, oral 0.1 mcg/mouse): 11.6 ± 1.85 × 0.1 mm
Degree of swelling ([1]; Table 3, oral 0.1 mcg/mouse): 147%
Increase in thickness of footpad (± S.D.) ([1]; Table 3, oral 1 mcg/mouse): 11.9 ± 0.97 × 0.1 mm
Degree of swelling ([1]; Table 3, oral 1 mcg/mouse): 151%
Increase in thickness of footpad (± S.D.) ([1]; Table 3, oral 10 mcg/mouse): 10.9 ± 0.57 × 0.1 mm
Degree of swelling ([1]; Table 3, oral 10 mcg/mouse): 138%
Increase in thickness of footpad (± S.D.) ([1]; Table 4, oral 0.01 mcg/mouse): 10.1 ± 1.52 × 0.1 mm
Degree of swelling ([1]; Table 4, oral 0.01 mcg/mouse): 125%
Increase in thickness of footpad (± S.D.) ([1]; Table 4, oral 0.1 mcg/mouse): 11.1 ± 0.82 × 0.1 mm
Degree of swelling ([1]; Table 4, oral 0.1 mcg/mouse): 137%
Increase in thickness of footpad (± S.D.) ([1]; Table 4, oral 1 mcg/mouse): 10.8 ± 1.29 × 0.1 mm
Degree of swelling ([1]; Table 4, oral 1 mcg/mouse): 133%
Degree of swelling, Intraperitoneal injection ([1]; intraperitoneal 1 mcg/mouse): 143%
Degree of swelling, Intraperitoneal injection ([1]; intraperitoneal 10 mcg/mouse): 128%
Degree of swelling, Oral administration ([1]; oral 1 mcg/mouse): 135%
Degree of swelling, Oral administration ([1]; oral 10 mcg/mouse): 126%
Increase in thickness of footpad (± S.D.) ([1]; Table 7, oral 1 mcg/mouse): 11.7 ± 1.29 × 0.1 mm
Degree of swelling ([1]; Table 7, oral 1 mcg/mouse): 135%
Increase in thickness of footpad (± S.D.) ([1]; Table 7, oral 10 mcg/mouse): 11.0 ± 1.05 × 0.1 mm
Degree of swelling ([1]; Table 7, oral 10 mcg/mouse): 126%
enhancement of cell-mediated immunity compared with bestatin ([1]; intraperitoneal injection or oral administration): enhances the cell-mediated immunity as much as or much more than bestatin
immunopotentiating activity compared with bestatin ([1]; oral 0.01 to 10 mcg/mouse versus bestatin oral 1 to 10 mcg/mouse): exhibits the immunopotentiating activity as high as bestatin
enhancement of D.T.H. response compared with bestatin ([1]; oral, dosages lower than 1 mcg/mouse): enhances the D.T.H. response much more than bestatin
enhancement of cell-mediated immunity ([1]; oral, low dosage of 0.01 mcg/mouse): active to enhance the cell-mediated immunity
acute toxicity: tolerance of intraperitoneal administration (ICR-strain mice): tolerated
inhibitory activity to aminopeptidase B (aminopeptidase B): weak inhibitory activity
solubility in water (solubility in water): soluble in water
